# Values joined by “and” are separate entries in the source; they are usually repeats but may differ in a detail not shown here. Equal entries are not always repeated.
# How the values were obtained:
# [1] = test system: E. coli-AbCGT; experiment: Glycosylation by whole-cell biocatalyst E. coli-AbCGT; format: cell-based; conditions: fig. 2c, 30 °C, M9 medium, 12 h, 0.25 mM acceptor; Reaction-1 to -3
# Protocol: The induced cells of E. coli-AbCGT were harvested by centrifugation at 3000 × g for 5 min at 4 °C and washed with ddH2O. Pellets were resuspended by M9 minimal medium containing 2% glucose to appropriate cell density (OD600 = 3.0). Prepared whole-cell biocatalyst of E. coli-AbCGT (500 μL) was then added to 2-mL tubes containing various acceptors at a concentration of 0.25 mM. The mixture was incubated at 30 °C for 12 h with shaking (200 rpm). The reactions were analyzed using GT activity assays as described above. For quantification, three parallel assays were routinely carried out.
# [2] = target: T1, SGLT2 (Homo sapiens, UniProt P31639); experiment: 1-NBDG uptake in HEK293 cells stably expressing SGLT2; format: cell-based; conditions: triplicate; for inhibition at 10 µM: HEK293, compound at 10 μM, read-out: SGLT2 inhibitory rates; for SGLT2 inhibitory rates: compound at 10 μM, 10 µM
# T1 construct: Human full-length SGLT2 cDNA (NM_003041.3) was synthesized; expressed in transfected cells; host or cells: HEK293, retroviral transduction with pMSCVpuro-SGLT2, puromycin selected
# T1 sequence (P31639 1-672): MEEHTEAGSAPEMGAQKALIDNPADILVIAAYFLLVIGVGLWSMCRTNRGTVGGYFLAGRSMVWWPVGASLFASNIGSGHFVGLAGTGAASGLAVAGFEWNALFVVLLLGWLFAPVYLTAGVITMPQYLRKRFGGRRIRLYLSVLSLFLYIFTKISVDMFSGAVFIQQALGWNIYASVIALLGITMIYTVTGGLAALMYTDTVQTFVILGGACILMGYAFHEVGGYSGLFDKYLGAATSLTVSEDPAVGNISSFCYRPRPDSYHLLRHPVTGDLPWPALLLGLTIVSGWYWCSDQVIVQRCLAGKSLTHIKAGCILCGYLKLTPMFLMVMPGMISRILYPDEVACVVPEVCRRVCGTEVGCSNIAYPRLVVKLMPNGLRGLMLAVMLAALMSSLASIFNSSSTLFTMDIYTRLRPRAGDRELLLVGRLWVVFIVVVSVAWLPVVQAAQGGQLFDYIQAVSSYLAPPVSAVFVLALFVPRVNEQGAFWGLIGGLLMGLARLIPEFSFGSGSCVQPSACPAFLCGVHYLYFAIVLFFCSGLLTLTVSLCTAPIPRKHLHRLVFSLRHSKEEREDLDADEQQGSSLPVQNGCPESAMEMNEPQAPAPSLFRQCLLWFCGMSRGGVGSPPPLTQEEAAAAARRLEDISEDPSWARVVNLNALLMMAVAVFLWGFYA
# [3] = target: T2, AbCGT (Aloe vera, UniProt A0A7G9P699); experiment: Glycosyltransferase activity assay, purified AbCGT (wild type) with aglycon acceptors and UDP-Glc; format: biochemical, Aloe barbadensis; conditions: fig. 2b, purified AbCGT, redesigned substrates; Reaction-1 to -3
# T2 sequence (A0A7G9P699 entry or part of it): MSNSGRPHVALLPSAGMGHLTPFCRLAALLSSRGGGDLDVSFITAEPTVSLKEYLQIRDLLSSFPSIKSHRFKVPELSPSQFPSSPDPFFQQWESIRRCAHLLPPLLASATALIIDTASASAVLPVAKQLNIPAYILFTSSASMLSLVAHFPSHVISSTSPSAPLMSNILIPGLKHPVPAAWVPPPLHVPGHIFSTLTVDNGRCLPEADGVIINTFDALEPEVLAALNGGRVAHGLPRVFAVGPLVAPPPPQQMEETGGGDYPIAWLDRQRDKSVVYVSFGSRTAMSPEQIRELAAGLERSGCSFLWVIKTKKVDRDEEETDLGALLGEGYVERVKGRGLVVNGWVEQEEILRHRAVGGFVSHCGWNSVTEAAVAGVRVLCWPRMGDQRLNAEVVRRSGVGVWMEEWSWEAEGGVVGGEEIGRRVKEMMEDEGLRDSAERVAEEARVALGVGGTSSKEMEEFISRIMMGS
# [4] = target: T3, SGLT1 (Homo sapiens, UniProt P13866); experiment: 1-NBDG uptake in HEK293 cells stably expressing SGLT1; format: cell-based; conditions: HEK293, compound at 10 μM; triplicate; read-out: SGLT1 inhibitory rates
# T3 construct: The full-length SGLT1 cDNA was obtained by PCR with forward primer; expressed in transfected cells
# T3 sequence (P13866 1-664): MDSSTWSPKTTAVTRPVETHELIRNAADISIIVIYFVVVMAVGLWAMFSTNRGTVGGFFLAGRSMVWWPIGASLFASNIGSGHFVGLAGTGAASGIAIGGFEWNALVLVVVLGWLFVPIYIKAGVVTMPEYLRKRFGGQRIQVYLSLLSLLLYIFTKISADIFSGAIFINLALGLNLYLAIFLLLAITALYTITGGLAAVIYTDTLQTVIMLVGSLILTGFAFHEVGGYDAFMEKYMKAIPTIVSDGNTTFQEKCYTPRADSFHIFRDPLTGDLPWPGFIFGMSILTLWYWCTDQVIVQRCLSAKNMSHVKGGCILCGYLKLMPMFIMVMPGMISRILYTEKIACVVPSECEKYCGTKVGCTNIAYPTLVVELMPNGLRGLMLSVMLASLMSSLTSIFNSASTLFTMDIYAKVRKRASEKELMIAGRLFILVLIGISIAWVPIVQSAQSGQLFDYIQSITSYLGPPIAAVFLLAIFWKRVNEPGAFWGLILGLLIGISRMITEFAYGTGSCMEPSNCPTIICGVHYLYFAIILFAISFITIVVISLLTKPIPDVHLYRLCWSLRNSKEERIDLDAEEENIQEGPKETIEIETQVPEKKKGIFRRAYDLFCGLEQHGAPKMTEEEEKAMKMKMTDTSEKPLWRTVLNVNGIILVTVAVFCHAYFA
# [5] = target: T2, AbCGT; experiment: Sugar donor promiscuity of AbCGT with phloretin (17) as acceptor; format: biochemical, Aloe barbadensis; conditions: sugar donor with phloretin (17) as acceptor; Reaction-1 to -3
# Protocol: The reaction mixture contained 0.5 mM sugar donors (1.0 mM for di-glycosylation), 0.25 mM aglycons, 50 mM Tris-HCl (pH 7.4), and 50‒100 μg of purified AbCGT in a final volume of 100 μL. Due to the instability of some acceptors in the buffer of pH 11.0, the reactions were performed under the physiological conditions (pH 7.4, 30 °C) to compare the catalytic activities of AbGT27 with different substrates under the same conditions. The reactions were performed at 30 °C for up to 12 h and terminated by the addition of 200 μL of ice-cold methanol. Subsequently, samples were centrifuged at 15,000 × g for 30 min to collect the supernatant, and aliquots were analyzed by HPLC-UV/ESIMS. HPLC analysis was performed on a Shiseido CAPCELL PAK C18 MG III column (250 mm × 4.6 mm I.D., 5 μm, Shiseido Co., Ltd., Japan) at a flow rate of 1 mL min^‒1. The mobile phase was a gradient elution of solvents A (0.1% formic acid aqueous solution) and B (methanol). The gradient programs were used for the analysis of the reactions (Supplementary Table 6). The conversion rates of the enzyme reactions were calculated from peak areas of glycosylated products and substrates as analyzed by HPLC. To facilitate inferential statistical analysis, three parallel assays were routinely performed; the means ± SD from triplicate analyses are reported here.
# [6] = test system: E. coli-AbCGT; experiment: Optimization of cell density and substrate concentration in whole-cell biocatalysis; format: cell-based; conditions: replicates 1-3; for Conversion rate of 46: substrate 150 mg L^‒1; for conversion rate: OD600 = 13.0
# Protocol: To study the optimal cell density, the reaction was performed in various cell densities with OD600 values in the range of 1.0−15.0 and a substrate concentration of 150 mg L^‒1. […] For quantification, three parallel assays were routinely carried out.
SMILES,"conversion rates, Whole cells [1]",inhibition at 10 µM [2] [%],"conversion rates, Purified Enzyme [3]",further results
Oc1cc(O)c(Cc2ccc(F)cc2)c(O)c1 [Compound 48],86% and 92.2% and 88.8%,0.2,100%,–
Oc1ccc(CCc2c(O)cc(O)cc2O)cc1 [Compound 51],87.9% and 92.2% and 95.8%,3.3,100%,–
"Oc1cc(O)c(CCc2ccccc2)c(O)c1 [Compound 39, 1-phenethylbenzene-2,4,6-triol]",7.2% and 13.4% and 9.4%,0.2,100%,–
CCCCc1ccc(Cc2c(O)cc(O)cc2O)cc1 [Compound 47],2.7% and 3.2% and 3.1%,0.2,100%,–
Oc1cc(O)c(Cc2ccc(-c3ccccc3)cc2)c(O)c1 [Compound 50],0%,0.2,100%,–
OCC1OC(c2c(O)cc(O)c(Cc3ccc(Cl)cc3)c2O)C(O)C(O)C1O (stereo not shown) [Compound 49a],–,> 96,–,SGLT2 inhibitory rates [2]: 98.5%; inhibition at 10 µM [4]: 34.7%
"O=C(O)C1OC(OP(=O)(O)OP(=O)(O)OCC2OC(n3ccc(=O)[nH]c3=O)C(O)C2O)C(O)C(O)C1O [e, UDP-α-D-glucuronic acid]",–,–,–,"conversion rates, O,N,S-glycosylation [5]: 0%; conversion rates, di-C-glycosylation [5]: 0%; conversion rates, mono-C-glycosylation [5]: 4.8% and 5.3%"
Oc1ccc(/N=N/c2nccs2)c(O)c1 [Compound 29],3.7% and 5.4% and 5.9%,–,35.9% and 40% and 39.9%,–
Oc1cc(O)c(CCc2c[nH]c3ccccc23)c(O)c1 [Compound 43],87.2% and 96% and 92.6%,12.9,100%,–
"Oc1cc(O)c(Cc2ccccc2)c(O)c1 [Compound 38, 1-benzylbenzene-2,4,6-triol]",44.3% and 46.1% and 53.7%,4.2,100%,–
Oc1cc(O)c(CCc2ccc(Cl)cc2)c(O)c1 [Compound 54],39.8% and 44.7% and 47.4%,0.2,100%,–
CCc1c(O)cc(O)cc1O [Compound 30],0%,–,100%,–
Oc1cc(O)c(CC2CC2)c(O)c1 [Compound 34],11.3% and 11.9% and 15.8%,–,100%,–
CCc1ccc(O)cc1O [Compound 27],0%,–,5.7% and 8.5% and 6.8%,–
Oc1cc(O)c(Cc2ccc(Cl)cc2)c(O)c1 [Compound 49],0.8% and 0.9%,0.2,100%,–
Oc1cc(O)c(CC2CCC2)c(O)c1 [Compound 35],41.1% and 39.5% and 30.5%,–,100%,–
Oc1cc(O)c(Cc2ccsc2)c(O)c1 [Compound 42],73% and 84.5% and 79.6%,2.7,100%,–
Cc1ccc(Cc2c(O)cc(O)cc2O)cc1 [Compound 46],89% and 80.2% and 82.3%,10.8,100%,Conversion rate of 46 ([6]; OD600nm 1.0): 2% and 4% (2×); Conversion rate of 46 ([6]; OD600nm 3.0): 13% and 11% and 15%; Conversion rate of 46 ([6]; OD600nm 5.0): 22% (2×) and 19%; Conversion rate of 46 ([6]; OD600nm 7.0): 26% and 28% and 32%; Conversion rate of 46 ([6]; OD600nm 9.0): 33% (2×) and 29%; Conversion rate of 46 ([6]; OD600nm 11.0): 38% and 34% and 33%; Conversion rate of 46 ([6]; OD600nm 13.0): 38%; Conversion rate of 46 ([6]; OD600nm 15.0): 43% and 35% (2×); conversion rate ([6]; concentration of 46 57.5 mg/L): 100%; conversion rate ([6]; concentration of 46 115 mg/L): 100%; conversion rate ([6]; concentration of 46 172.5 mg/L): 100%; conversion rate ([6]; concentration of 46 230 mg/L): 100%; conversion rate ([6]; concentration of 46 287.5 mg/L): 89% and 92% and 93%; conversion rate ([6]; concentration of 46 345 mg/L): 27.5% and 20% and 29.8%; conversion rate ([6]; concentration of 46 460 mg/L): 13.6% and 13.9% and 14%; conversion rate ([6]; concentration of 46 575 mg/L): 8.8% and 8.5% and 8%
CCCCc1ccc(Cc2c(O)cc(O)c(C3OC(CO)C(O)C(O)C3O)c2O)cc1 (stereo not shown) [Compound 47a],–,> 96,–,SGLT2 inhibitory rates [2]: 100%; inhibition at 10 µM [4]: 17.1%
Oc1cc(O)c(CC2CCCCC2)c(O)c1 [Compound 37],100%,–,100%,–
Oc1cc(O)c(CCc2ccc3c(c2)CCO3)c(O)c1 [Compound 52],84.1% and 72.7% and 80.3%,0.8,100%,–
Oc1cc(O)c(CCc2ccc(F)cc2)c(O)c1 [Compound 53],66.8% and 61% and 58.3%,0.2,100%,–
OCC1OC(c2c(O)cc(O)c(Cc3ccc(-c4ccccc4)cc3)c2O)C(O)C(O)C1O (stereo not shown) [Compound 50a],–,> 96,–,SGLT2 inhibitory rates [2]: 96.3%; inhibition at 10 µM [4]: 27.1%

# — PMC7558026, “Exploring and applying the substrate promiscuity of a C-glycosyltransferase in the chemo-enzymatic synthesis of bioactive C-glycosides” (Nature Communications, 2020)
